The values that follow come from patent publication US20220062258A1, “Heterocyclic derivatives” (Merck Patent GmbH, priority 2019, published 2022).

Test [1] has as its system HUVEC primary endothelial cells. Nature of the test: HUVEC proliferation assay (CyQUANT Direct). The class given is cell-based. The conditions noted are these: Homo sapiens, 72 h, 3 days incubation. Here is the method:
HUVEC Proliferation Assay
Proliferation of HUVEC primary endothelial cells was used as cell-based mechanistical assay.^25 Applying the CyQUANT@ Direct Cell Proliferation Assay (Invitrogen C35011) which is based on a cell-permeant fluorescent DNA-binding dye, DNA content is used as a direct measure for cell number. Pooled HUVEC cells (Promocell C-12203) are cultivated in the medium supplied by Promocell (Cat No C-22020) for maximum 4 passages. For the assay 500 cells/well are seeded into black 384-well culture plates with clear bottom in 70 μl culture medium and incubated for 6 hours at 37° C., 5% CO2. 10 μl prediluted test compounds are added and cells incubated for 3 days at 37° C., 5% CO2 before measurement of DNA content. CyQUANT detection reagent is prepared according to the manufacturers protocol, 20 μl/well added and incubated at 37° C., 5% CO2 for at least 1 h before measurement of fluorescence at Envision multimode reader (Perkin-Elmer, Waltham) with excitation 480 nm and emission 535 nm (bottom read mode). The assay is performed as dose response with 10 compound dilutions. Inhibitory values (IC50) were determined using the program ASSAY ANALYZER® from GeneData (Basel, Switzerland).

The target of test [2] is T1, MetAP-2 (Homo sapiens, UniProt P50579). In words: Biochemical activity testing of MetAP-2 (enzyme-coupled assay, Met-Ala-Ser substrate). Further details: N-terminal His tag human rec MetAP2 (prepared in house, AA 2-478, final concentration (fc) 123 nM); His tag (N); TEV cleavage site (N); made in house. Here is the method: Biochemical Activity Testing of MetAP-2
MetAP-2 activity was determined by an enzyme-coupled assay using the tripeptide Met-Ala-Ser (MAS) as substrate and recombinant human MetAP-2 (His-Tev-MetAP-2, prepared at Merck). The released methionine is converted by L-amino acid oxidase (AAO) to oxidized Methionine and hydrogen peroxide is released. In a second step horse radish peroxidase catalyzes the oxidation of the leuko dye dianisidine to oxidized dianisidine using hydrogen peroxide as co-substrate. The produced dianisidine ox was detected photometrically as increase in absorbance at 450 nm. Met-AP2 activity was determined in a kinetic measurement mode. The release of one molecule methionine corresponds to the production of one molecule dianisidine ox. The MetAP2 enzymatic activity is directly corresponding to the increase in absorbance per time.
In detail, the assay was performed in 384 well microtiter plate (Greiner 78110 MTP, transparent) in a total reaction volume of 50 μl at 22° C. 0.35 μg of N-terminal His tag human rec MetAP2 (prepared in house, AA 2-478, final concentration (fc) 123 nM), 1 unit horse radish Peroxidase (Roche, Mannheim), 0.02 unit L-amino acid oxidase (Merck, Darmstadt), 0.6 mM dianisidine (Merck, Darmstadt, dissolved in 50 mM HCl, 10% DMSO) were incubated in the absence or presence of the test compound (10 dilution concentrations) in 100 mM Hepes, 50 mM NaCl, 50 μM MnCl2 at pH 7.0 for 15 min at 22° C. The reaction was started by the addition of 500 μM (fc) MAS peptide (Merck, Darmstadt). After mixing the first absorbance measurement was performed on an Envision multimode reader (Perkin-Elmer, Waltham) at wavelength of 450 nm. The reaction was incubated at 22° C. for additional 45 min and the second absorbance measurement was performed. The increase of absorbance per time was determined. The control value used was the inhibitor-free reaction with 0.5% DMSO (fc). As pharmacological inhibitor control Fumagillin (Merck, Darmstadt) in a final concentration of 5 μM was used. The inhibitory values (IC50) were determined using the program ASSAY ANALYZER® from GeneData (Basel, Switzerland).
Target sequence in this assay (P50579 2-478): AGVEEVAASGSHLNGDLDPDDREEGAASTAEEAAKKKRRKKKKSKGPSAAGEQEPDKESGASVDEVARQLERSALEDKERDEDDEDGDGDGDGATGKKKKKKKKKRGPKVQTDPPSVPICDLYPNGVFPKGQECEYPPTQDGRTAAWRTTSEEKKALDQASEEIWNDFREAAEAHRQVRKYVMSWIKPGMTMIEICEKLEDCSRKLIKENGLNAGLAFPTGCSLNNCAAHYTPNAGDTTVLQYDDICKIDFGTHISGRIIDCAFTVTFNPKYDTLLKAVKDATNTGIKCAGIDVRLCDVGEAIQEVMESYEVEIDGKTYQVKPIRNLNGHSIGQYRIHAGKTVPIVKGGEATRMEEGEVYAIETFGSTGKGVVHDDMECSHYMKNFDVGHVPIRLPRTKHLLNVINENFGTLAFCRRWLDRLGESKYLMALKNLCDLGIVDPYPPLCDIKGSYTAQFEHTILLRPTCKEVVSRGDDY

Test [3] deals with T1, MetAP-2. In words: Degradation of MetAP-2 in HCT116 cells (Western blot, MetAp2/GAPDH signal). It is filed as cell-based. Further details: endogenous in cells; host or cells: HCT116. Particulars: 0.1 μM, 24 hrs, HTC116 cells; <1 means degradation. Here is the method: See scans below. […] The initial MetAP-2 degradation results were obtained after 24 h incubation of the compounds in three different concentrations (0.1; 1; 10 μM), cell lysis, SDS-PAGE separation, blotting and antibody aided detection.
Comparison of MetAP2 protein levels in HTC116 cells after compound treatments at different concentrations and time points. As control, DMSO was used and its values set as “1”. MetAp2 values <1 means degradation.
2. Exemplary Testing of the Compound
HCT116 cells were sown in 6-well plates. Pipette 1 mL fresh medium to every well and incubate for at least 1 h (37° C., 5% CO2, 95% rH).
Harvest and count cells in Vi-Cell. Equinr. 70198475 Adjust cell concentration to 0.35e^6 cells/mL and add 1 mL of cell suspension (total 0,35e^6 cells/well).
Incubate cells for 24 hours (37° C., 5% CO2, 95% rH)
HCT116: 24 h: ˜50% confluent before treatment
Compounds will be thawed the first time, stock: 10 mM; final concentration: 10 μM & 1 μM & 0.1 μM
Treatment with DMSO based solution with Digital Dispenser: HCT116 platte 2A1.jpg_meta.xml • create new dispensing protocol for compound • apply name of test compound and its stock concentration (in mM) for testing • 3×1:10 dilution series • final 0.3% DMSO, DMSO normalization for every well • shaking after compound/DMSO addition
Incubate cells for further 24 hours (37° C., 5% C02, 95% rH)
HCT116: 70-80% confluent before lysis • after incubation cells were lysed with RIPA lysis buffer including Halt™
all steps performed on ice or at 4° C. • aspirate supernatant from cells • wash cells twice with 2.0 mL ice cold PBS buffer • aspirate supernatant from cells after each washing step • lyse cells with 100 μL Ripa lysis buffer per well • scrape cells with cell scraper and transfer lysates to Eppendorf Cups • incubate for 15 min on ice • centrifuge […] at 13000×g and 4° C. • transfer supernatants to fresh Eppendorf cups • removal of 20 μL lysate for BCA assay • aliquot and freeze at −20° C.
Determination of protein concentration of lysates with BCA Protein Assay Kit. BSA supplied with the kit is 2 mg/mL.
Dilute the standard (Stock BSA concentration=2 mg/mL) in a 96 well plate: Samples were run 1:4. Dilute in lysing buffer, lysing buffer alone was run to determine the background from detergents in the assay.
BCA reagent: Dilute Reagent A and Reagent B in a 1:50 ratio. To 9.8 mL A add 200 μL B.
Assay Procedure: Pipette 5 μL/well of standard or samples to 96 wells (see plate layout). Samples were run in duplicate. Blanks=5 μL/well PBS or 5 μL/well lysing buffer. Add 100 μL/well of the prepared BCA reagent. Tap plate to mix or shake for 1-2 min on the Eppendorf mixer. Incubate at 37° C. for 30 min.
Read the OD at 562 nm. Plate was read on EnVision 2104 Multilabel Reader (Perkin Elmer, Equipment Number 70160330) last verification of instrument 17.08.2017 (once a year) (A25/531). AEH181012_BCA.csv
In EXCEL the duplicates were averaged and the average background PBS was subtracted for the standard curve.
A trend line was created, the intercept (b) was set at 0. The R^2 should be >0.950 for acceptable results. The lysate buffer blank was subtracted from the test values and the averaged, background-corrected O.D. values were used with the equation to calculate mg/ml and then were corrected for the dilution factor for the final mg/mL value. Only results from OD values within the range of the standard curve are acceptable. Values outside of the standard curve range are ignored. BCA AEH00350 Berechnung.xlsx
6. Sample Calculation and Preparation • thaw lysates of AEH00350 on ice • calculate sample volume for Western Blot loading 10 μg total protein/13 μL per slot: • dilute samples with lysis buffer and 10× reducing agent & 4×LDS buffer to 10 μg. • heat them at 70° C. for 10 min and 1000 rmp
7. […]
For orientation: A western blot detects proteins with antibodies after separation by electrophoresis.
Target sequence in this assay (P50579 whole entry, the tested form may be a part): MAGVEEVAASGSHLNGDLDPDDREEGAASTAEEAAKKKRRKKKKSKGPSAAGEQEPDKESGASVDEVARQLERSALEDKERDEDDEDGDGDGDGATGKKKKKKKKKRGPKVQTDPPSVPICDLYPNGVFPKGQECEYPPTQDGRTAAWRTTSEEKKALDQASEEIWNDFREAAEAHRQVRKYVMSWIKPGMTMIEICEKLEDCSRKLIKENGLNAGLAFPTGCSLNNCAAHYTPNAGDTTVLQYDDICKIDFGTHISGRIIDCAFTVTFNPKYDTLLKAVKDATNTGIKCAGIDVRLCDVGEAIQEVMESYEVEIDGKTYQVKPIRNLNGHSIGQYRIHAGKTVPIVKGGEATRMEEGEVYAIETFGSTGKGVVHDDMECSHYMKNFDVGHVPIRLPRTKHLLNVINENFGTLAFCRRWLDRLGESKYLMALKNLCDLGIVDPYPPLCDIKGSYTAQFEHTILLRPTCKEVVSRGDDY

The target of test [4] is T1, MetAP-2. Described as above. The class given is cell-based. Further details: endogenous in cells; host or cells: HCT116. The conditions noted are these: 0.1 μM, 6 hrs, HTC116 cells; <1 means degradation.
Target sequence in this assay (P50579 whole entry, the tested form may be a part): as above

In general, IC50 refers to the concentration needed to halve the response being measured. High values mean weaker potency in that assay, low ones greater potency in that assay. Regarding `Cc1ncsc1-c1ccc(CNC(=O)[C@@H]2C[C@@H](O)CN2C(=O)[C@@H](NC(=O)CCCCCNC(=O)c2cc3cc(N4CC[C@@](O)(C(=O)NCc5cc(F)cc(F)c5)C4=O)ccc3[nH]2)C(C)(C)C)cc1` (mixture of isomers) [Compound A3, (3RS)—N-[(3,5-difluorophenyl)methyl]-3-hydroxy-1-{2-[(5-{[(2S)-1-[(2S,4R)-4-hydroxy-2-({[4-(4-methyl-1,3-thiazol-5-yl)phenyl]methyl}carbamoyl)pyrrolidin-1-yl]-3,3-dimethyl-1-oxobutan-2-yl]carbamoyl}pentyl)carbamoyl]-1H-indol-5-yl}-2-oxopyrrolidine-3-carboxamide], the IC50 stood at 30000 nM in test [1] and 550 nM in test [2].

Regarding `O=C1CCC(N2C(=O)c3ccc(NCCCCCNC(=O)c4cc5cc(N6CCC(O)(C(=O)NCc7cc(F)cc(F)c7)C6=O)ccc5[nH]4)cc3C2=O)C(=O)N1` (centres unmarked) [Compound A4, 5-[3-[(3,5-difluorophenyl)methylcarbamoyl]-3-hydroxy-2-oxo-pyrrolidin-1-yl]-N-[5-[[2-(2,6-dioxo-3-piperidyl)-1,3-dioxo-isoindolin-5-yl]amino]pentyl]-1H-indole-2-carboxamide], the values for the IC50 in test [1] and in test [2] were 1600 nM and 480 nM, respectively.

`O=C1CCC(N2C(=O)c3cccc(NCCOCCOCCNC(=O)c4cc5cc(N6CCC(O)(C(=O)NCc7cc(F)cc(F)c7)C6=O)ccc5[nH]4)c3C2=O)C(=O)N1` (centres unmarked) [Compound A5, 5-[3-[(3,5-difluorophenyl)methylcarbamoyl]-3-hydroxy-2-oxo-pyrrolidin-1-yl]-N-[2-[2-[2-[[2-(2,6-dioxo-3-piperidyl)-1,3-dioxo-isoindolin-4-yl]amino]ethoxy]-ethoxy]ethyl]-1-H-indole-2-carboxamide]: the IC50 came out at 5800 nM in test [1] and 330 nM in test [2].

For the molecule `Cc1ncsc1-c1ccc(CNC(=O)[C@@H]2C[C@@H](O)CN2C(=O)[C@@H](NC(=O)COCCOCCNC(=O)c2cc3cc(N4CCC(O)(C(=O)NCc5cc(F)cc(F)c5)C4=O)ccc3[nH]2)C(C)(C)C)cc1` (stereo partly drawn) [Compound A6, 5-[3-[(3,5-difluorophenyl)methylcarbamoyl]-3-hydroxy-2-oxo-pyrrolidin-1-yl]-N-[2-[2-[2-[[(1S)-1-[(2S,4R)-4-hydroxy-2-[[4-(4-methylthiazol-5-yl)phenyl]methylcarbamoyl]pyrrolidine-1-carbonyl]-2,2-dimethyl-propyl]amino]-2-oxoethoxy]ethoxy]ethyl]-1H-indole-2-carboxamide], the IC50 turned out to be 30000 nM in test [1] and 370 nM in test [2].

Turning to `Cc1ncsc1-c1ccc(CNC(=O)[C@@H]2C[C@@H](O)CN2C(=O)[C@@H](NC(=O)COCCOCCOCCOCCNC(=O)c2cc3cc(N4CCC(O)(C(=O)NCc5cc(F)cc(F)c5)C4=O)ccc3[nH]2)C(C)(C)C)cc1` (some centres unmarked) [Compound A7], the half-inhibitory concentration (IC50) in test [1] came out at 7300 nM; in test [2] it was 320 nM.

Regarding `Cc1ncsc1-c1ccc(CNC(=O)[C@@H]2C[C@@H](O)CN2C(=O)[C@@H](NC(=O)COCCOCCOCCOCCOCCNC(=O)c2cc3cc(N4CCC(O)(C(=O)NCc5cc(F)cc(F)c5)C4=O)ccc3[nH]2)C(C)(C)C)cc1` (stereo partly drawn) [Compound A8, 5-[3-[(3,5-difluorophenyl)methylcarbamoyl]-3-hydroxy-2-oxo-pyrrolidin-1-yl]-N-[2-[2-[2-[2-[2-[2-[[(1S)-1-[(2S,4R)-4-hydroxy-2-[[4-(4-methylthiazol-5-yl)phenyl]-methylcarbamoyl]pyrrolidine-1-carbonyl]-2,2-dimethyl-propyl]amino]-2-oxoethoxy]ethoxy]ethoxy]ethoxy]ethoxy]ethyl]-1H-indole-2-carboxamide], the IC50 in test [1] was 30000 nM; in test [2], 330 nM.

With `O=C1CCC(N2C(=O)c3cccc(NCCOCCOCCOCCOCCOCCNC(=O)c4cc5cc(N6CC(O)C(O)(C(=O)NCc7cc(F)cc(F)c7)C6=O)ccc5[nH]4)c3C2=O)C(=O)N1` (centres unmarked) [Compound A21, 5-[3-[(3,5-difluorophenyl)methylcarbamoyl]-3,4-dihydroxy-2-oxo-pyrrolidin-1-yl]-N-[2-[2-[2-[2-[2-[2-[[2-(2,6-dioxo-3-piperidyl)-1,3-dioxo-isoindolin-4-yl]amino]ethoxy]ethoxy]ethoxy]ethoxy]ethoxy]ethyl]-1H-indole-2-carboxamide], the figures for the “Signal MetAp2/GAPDH normalized to untreated (DMSO)” value in test [3] and in test [4] were 1.2 and 1.3, respectively.
